The source of these data is ChEMBL document CHEMBL3301361, “Experimental in vitro DMPK and physicochemical data on a set of publicly disclosed compounds”.

The nature of data set [1]: in vitro. The settings on record: human.
Data set [2] can be described thus: in vitro. Particulars: hepatocytes.
Another data set in a line: physchem. Particulars: octan-1-ol/water.

Each structure is given as a SMILES string.

In general, microsomal CLint refers to the rate of metabolic loss divided by the concentration. A high value points to rapid turnover. For orientation: hepatocyte CLint means a measure of how fast metabolising enzymes remove a compound, apart from limits set by blood flow. For the compound `CC(C)c1ccc(NC(=O)Cn2cnc3c2c(=O)n(C)c(=O)n3C)cc1`, the microsomal CLint in the data set “in vitro [1]” (microsomes) worked out at 18.2 µL/min/mg. In the data set “in vitro [2]”, the hepatocyte CLint came to 16.6 µL/min/1e6 cells.
For orientation: logD means lipophilicity at a set pH, counting ionised and neutral species. Read a high logD as a more lipophilic compound. In the case of `O=C(Nc1ncc(F)s1)C(CC1CCOCC1)c1ccc(S(=O)(=O)C2CC2)cc1` (stereo unspecified), the intrinsic clearance (microsomal CLint) in the data set “in vitro [1]” (liver microsomes) turned out to be 33.1 µL/min/mg. In addition, the hepatocyte CLint in “in vitro [2]” came to 5.5 µL/min/1e6 cells. In addition, the logD in the data set “physchem” (pH 7.4, LogD7.4) worked out at 3.3.
With `O=C1NC(=O)/C(=C/c2ccc3c(c2)OC(F)(F)O3)S1`, the microsomal CLint in the data set “in vitro [1]” (liver microsomes) is 19.5 µL/min/mg. This compound also showed a hepatocyte CLint in the data set “in vitro [2]” of 4.17 µL/min/1e6 cells. For the same compound, the logD in the data set “physchem” (pH 7.4, LogD7.4) was found to be 2.8.
Compound `c1ccc(Nc2[nH]nnc2-c2ccccc2)cc1` showed a microsomal CLint in “in vitro [1]” (liver microsomes) of 119 µL/min/mg. The compound also showed an intrinsic clearance (hepatocyte CLint) in the data set “in vitro [2]” of 111 µL/min/1e6 cells. This compound registered a logD in “physchem” (pH 7.4, LogD7.4) of 3.37.
In “in vitro [1]” (microsomes), `CCn1c(SCC(=O)Nc2cc(C)on2)nnc1-c1cccnc1` had a microsomal CLint of 7.76 µL/min/mg. The hepatocyte CLint in “in vitro [2]” is 75.9 µL/min/1e6 cells.
`Cc1ccc(-c2nnc(SCC(=O)N3CCN(c4ccccc4)CC3)o2)cc1` came in with a microsomal CLint in the data set “in vitro [1]” (microsomes) above 150 µL/min/mg. Further, the hepatocyte CLint in the data set “in vitro [2]” was above 150 µL/min/1e6 cells.
`Cc1ccccc1NC(=O)CCS(=O)(=O)c1ccc(Br)s1`: the microsomal CLint in “in vitro [1]” (liver microsomes) is 46.8 µL/min/mg. Also, the hepatocyte CLint in “in vitro [2]” is above 150 µL/min/1e6 cells. Moreover, the logD in the data set “physchem” (pH 7.4, LogD7.4) was determined as 2.7.
On to `CCCCn1c(SCC(=O)Nc2cc(C)on2)nnc1-c1ccco1`, for which, in the data set “in vitro [1]” (microsomes), the microsomal CLint is above 150 µL/min/mg. Moreover, the hepatocyte CLint in “in vitro [2]” is above 150 µL/min/1e6 cells.
For `O=C(C1CCN(c2nnc(-n3cccc3)s2)CC1)N1CCc2ccccc2C1`, the microsomal CLint in the data set “in vitro [1]” (liver microsomes) worked out at 83.2 µL/min/mg. Besides, the intrinsic metabolic clearance (hepatocyte CLint) in the data set “in vitro [2]” came to 46.8 µL/min/1e6 cells. Besides, in “physchem” (pH 7.4), the logD amounted to 3.7.
Regarding `CCOC(=O)c1c(-c2ccccc2)nc2cc(C)ccn12`, the microsomal CLint in the data set “in vitro [1]” (microsomes) is above 150 µL/min/mg. Further, in the data set “in vitro [2]”, the hepatocyte CLint amounted to 148 µL/min/1e6 cells. In “physchem” (pH 7.4), the logD is 3.8.
`O=C(c1csc2c1CCCC2)N1CCCCC1` returned a microsomal CLint in the data set “in vitro [1]” (microsomes) of 117 µL/min/mg. This compound also registered a hepatocyte CLint in the data set “in vitro [2]” above 150 µL/min/1e6 cells. Further, the logD in the data set “physchem” (pH 7.4, LogD7.4) was 3.2.
`COc1ccc(CNC(=O)CSc2nc3cccnc3s2)cc1` showed an intrinsic metabolic clearance (microsomal CLint) in “in vitro [1]” (microsomes) above 150 µL/min/mg. Moreover, the hepatocyte CLint in “in vitro [2]” is above 150 µL/min/1e6 cells. This compound registered a logD in the data set “physchem” (pH 7.4, LogD7.4) of 2.5.
For the compound `O=C(O)CCc1ccc(OCc2cccc(Oc3ccccc3)c2)cc1`, the microsomal CLint in the data set “in vitro [1]” (microsomes) is 4.9 µL/min/mg. In “in vitro [2]”, this compound yielded a hepatocyte CLint of 97.7 µL/min/1e6 cells. The same compound returned a logD in “physchem” (pH 7.4, LogD7.4) of 2.47.
For the compound `CS(=O)(=O)c1ccc(-c2cnc(N)c(C(=O)Nc3ccccc3)n2)cc1`, the intrinsic clearance (microsomal CLint) in the data set “in vitro [1]” (microsomes) stood at 4.17 µL/min/mg. For the same compound, the hepatocyte CLint in “in vitro [2]” turned out to be 19.1 µL/min/1e6 cells.
Compound `COc1ccc(C(=O)NCc2cn(-c3cc(C)nc4ccc(OC)cc34)nn2)cc1` gave a microsomal CLint in the data set “in vitro [1]” (microsomes) of 64.6 µL/min/mg. In “in vitro [2]”, the hepatocyte CLint is 13.8 µL/min/1e6 cells. In the data set “physchem” (pH 7.4, LogD7.4), the logD turned out to be 3.5.
As for `O=c1[nH]c2c(O)ccc([C@@H](O)CNCCSCCCOCCc3ccccc3)c2s1`, in the data set “in vitro [1]” (microsomes), the microsomal CLint is 75 µL/min/mg. The same compound had a hepatocyte CLint in the data set “in vitro [2]” above 150 µL/min/1e6 cells. Besides, the logD in “physchem” (pH 7.4, LogD7.4) amounted to 2.54.
In turn, `CN(CC(=O)N(Cc1ccc(C2CCCCC2)cc1)c1ccc(C(=O)O)c(O)c1)S(=O)(=O)c1c(F)c(F)c(F)c(F)c1F` showed a microsomal CLint in “in vitro [1]” (microsomes) of 129 µL/min/mg. The compound further showed an intrinsic clearance (hepatocyte CLint) in “in vitro [2]” of 74.1 µL/min/1e6 cells.
For `Cc1ccc(NC(=O)c2cccc(N3CCOCC3)c2)cc1NC(=O)c1ccc(OCc2cscn2)cc1`, in that order: 23 µL/min/mg and 20 µL/min/1e6 cells.
In turn, `O=c1[nH]c2c(O)ccc([C@@H](O)CNCCc3cccc(CNCc4ccccc4Cl)c3)c2s1` registered a microsomal CLint in the data set “in vitro [1]” (liver microsomes) of 47 µL/min/mg. This compound displayed a hepatocyte CLint in the data set “in vitro [2]” of 60 µL/min/1e6 cells. In the data set “physchem” (pH 7.4, LogD7.4), this compound registered a logD of 1.85.
For `O=c1[nH]c2c(O)ccc([C@@H](O)CNCCOc3cccc(CNCCc4ccccc4F)c3)c2s1`, the microsomal CLint in the data set “in vitro [1]” (microsomes) was determined as 14 µL/min/mg. In “in vitro [2]”, the hepatocyte CLint was 23 µL/min/1e6 cells. For the same compound, the logD in the data set “physchem” (pH 7.4, LogD7.4) is 1.86.
For the compound `O=c1[nH]c2c(O)ccc([C@@H](O)CNCCc3cccc(CN4CCC(c5ccccc5)CC4)c3)c2s1`, the microsomal CLint in “in vitro [1]” (microsomes) stood at 27 µL/min/mg. In “in vitro [2]”, the hepatocyte CLint came to 29 µL/min/1e6 cells. Further, in “physchem” (pH 7.4, LogD7.4), the logD came out at 1.99.
On to `CC(=O)c1ncccc1NC(=O)[C@H]1CC[C@H](N2C(=O)[C@@H]3[C@@H]4CC[C@@H](C4)[C@@H]3C2=O)CC1`, for which, in “in vitro [1]” (liver microsomes), the microsomal CLint stood at 16.6 µL/min/mg. The compound further came in with a hepatocyte CLint in “in vitro [2]” above 150 µL/min/1e6 cells. The logD in the data set “physchem” (pH 7.4, LogD7.4) worked out at 3.01.
In turn, `O=c1c2c3n(c(=O)cc2[nH]n1-c1ccccc1Cl)CCCN(Cc1ccccc1)C3` yielded an intrinsic clearance (microsomal CLint) in the data set “in vitro [1]” (microsomes) of 32.4 µL/min/mg. The same compound yielded a hepatocyte CLint in the data set “in vitro [2]” below 3 µL/min/1e6 cells.
Compound `N#Cc1ccc(C(=O)Nc2ccc(-n3ccnc3)nc2)cc1` gave a microsomal CLint in “in vitro [1]” (microsomes) of 6.31 µL/min/mg. Further, in “in vitro [2]”, the hepatocyte CLint amounted to 20.4 µL/min/1e6 cells.
Regarding `Nc1ccc(-c2ccccc2Cl)cc1`, the microsomal CLint in the data set “in vitro [1]” (microsomes) turned out to be 39.8 µL/min/mg. Moreover, the hepatocyte CLint in the data set “in vitro [2]” came out at 123 µL/min/1e6 cells.
For the compound `O=C(Nc1cc(-c2ccnc(Nc3ccc(F)cc3)c2)ccn1)C1CCOCC1`, the microsomal CLint in the data set “in vitro [1]” (microsomes) stood at 6.03 µL/min/mg. Further, the hepatocyte CLint in the data set “in vitro [2]” was above 150 µL/min/1e6 cells.
For `N#Cc1cnc(N2CCN(C(=O)[C@@H]3CCCC[C@H]3C(=O)NC3(C#N)CC3)CC2)s1`, in that order: 6.76 µL/min/mg and 5.25 µL/min/1e6 cells.
In “in vitro [1]” (microsomes), `N#CC1(NC(=O)[C@@H]2CCCC[C@H]2C(=O)N2CCN(c3nc4ccncc4s3)CC2)CC1` had an intrinsic clearance (microsomal CLint) of 17.8 µL/min/mg. In the data set “in vitro [2]”, the hepatocyte CLint stood at 6.61 µL/min/1e6 cells.
